Reference: patent US9497975B2, “Broad spectrum natural preservative composition” (The Trustees of Columbia University in the City of New York, priority 2011, dated 2016)

Assays:
A. niger = assay: Efficacy of BA, THC and essential oils in anionic emulsion against A. niger, Example 2; format: cell-based, Aspergillus niger; conditions: essential oil 0.3% w/w alone or with BA 0.5% w/w and THC 0.05% w/w, incubation 48 hours, average of nine samples
Experimental: 0.9 gm aliquots of preservative containing emulsions were dispensed into several culture tubes. These were divided into various groups and inoculated with 0.1 ml of the test organism (bacteria, Candida albicans (10^8 cfu/ml) or Aspergillus niger (10^7 cfu/ml). After mixing, the tubes were incubated for 48 hours for bacteria t days for either C. albicans or A. niger. The cultures were then diluted serially with Drug Neutralizing Fluid (DNF) and 0.5 ml aliquots were plated on TSA and incubated for 24-48 hours (bacteria and C. albicans were incubated at 37° C. and A. niger at 30° C.). In the control group, the emulsion base without the preservatives was inoculated with each organism and processed similarly.
Various essential oils were used along with BA and THC and incorporated in anionic emulsion and tested against A. niger.

S. aureus = assay: Antimicrobial activity of test formulations in cationic or anionic emulsion, Example 3; format: cell-based, Staphylococcus aureus; conditions: incubated 48 hours
Experimental: (§1) A stock solution was prepared containing the active ingredients and was then diluted in either a cationic or anionic test formulation, where the cationic formulation tested was Formulation A described in Example 1 and the anionic formulation tested was Formulation B described in Example 1: […]
(§2) Test formulations comprising the synthetic preservative methylparaben, at a concentration of 0.3% w/w, was used as a positive control.
(§3) The following method of testing for antimicrobial activity was used. 25 gms of emulsion containing 1-1.2% of various preservative was prepared. 0.9 gm aliquots of preservative containing emulsions were dispensed into several culture tubes. These were divided into various groups and inoculated with 0.1 ml of the test organism (bacteria, Candida albicans (10^8 cfu/ml) or Aspergillus niger (10^7 cfu/ml)). After mixing, the tubes were incubated for 48 hours for bacteria and for 7 days days for either C. albicans or A. niger. The cultures were then diluted serially with Drug Neutralizing Fluid (DNF) and 0.5 ml aliquots were plated on TSA and incubated for 24-48 hours (bacteria and C. albicans were incubated at 37° C. and A. niger at 30° C.). […] The log 10 reduction in colony counts of the test group from the colony counts of control group was determined.

P. aeruginosa = assay: as above; format: cell-based, Pseudomonas aeruginosa; conditions: incubated 48 hours
Experimental: as §1, §2, §3

Aspergillus niger = assay: as above; format: cell-based; conditions: incubated 7 days
Experimental: as §1, §2
(§4) The following method of testing for antimicrobial activity was used. 25 gms of emulsion containing 1-1.2% of various preservative was prepared. 0.9 gm aliquots of preservative containing emulsions were dispensed into several culture tubes. These were divided into various groups and inoculated with 0.1 ml of the test organism (bacteria, Candida albicans (10^8 cfu/ml) or Aspergillus niger (10^7 cfu/ml)). After mixing, the tubes were incubated for 48 hours for bacteria and for 7 days days for either C. albicans or A. niger. The cultures were then diluted serially with Drug Neutralizing Fluid (DNF) and 0.5 ml aliquots were plated on TSA and incubated for 24-48 hours (bacteria and C. albicans were incubated at 37° C. and A. niger at 30° C.). In the control group, the emulsion base without the preservatives was inoculated with each organism and processed similarly. The log 10 reduction in colony counts of the test group from the colony counts of control group was determined.

Candida albicans = assay: as above; format: cell-based; conditions: incubated 7 days
Experimental: as §1, §2, §4

[1] = anionic emulsion (Formulation B)
[2] = cationic emulsion (Formulation A)

SMILES	log10 reduction in cfu, A. niger (A. niger) [log10]	log reduction from control growth, S. aureus (S. aureus; [1]) [log10]	log reduction from control growth, S. aureus (S. aureus; [2]) [log10]	log reduction from control growth, P. aeruginosa (P. aeruginosa; [1]) [log10]	log reduction from control growth, P. aeruginosa (P. aeruginosa; [2]) [log10]	log reduction from control growth, A. niger (Aspergillus niger; [1]) [log10]	log reduction from control growth, A. niger (Aspergillus niger; [2]) [log10]	log reduction from control growth, C. albicans (Candida albicans; [1]) [log10]	log reduction from control growth, C. albicans (Candida albicans; [2]) [log10]
Cc1ccc(C(C)C)c(O)c1 [TH, Thymol]	0.8	–	–	–	–	–	–	–	–
COC(=O)c1ccc(O)cc1 [methyl paraben, methylparaben]	–	0.12	1.9	0.11	2.1	2.88	4.16	4.31	4.25
